# Legend:
# [1] = lipid-lowering activity in rats fed hypercholesterolaemic diet (Experiment 1); type: in vivo, rat (Icem:CER (SPF Caw) male)
# Experimental: (§1) The activity of the compounds of the invention was evaluated: (1) on groups of Icem:CER (SPF Caw) male rats, fed for six days with hypercholesterolaemic diet according to C. E. Day: Shur P. E., Shultz H. R., Day C. E. (Ed.) Atherosclerosis and drug discovery Plenum Pub. Corp., 217 (1976): Experiment 1; or (2) or groups of Iva-SIV (SPF) male rats fed standard MS/K Altromin® diet: Experiment 2. MS/K Altromin is a trade mark.
# (§2) The tested compounds were suspended in Methocel (methyl-cellulose, a 0.5% solution in water) and administered by stomach tube at the dose of 50 mg/kg for 4 days in both the experiments.
# (§3) Groups of animals were treated with the suspending agent only (control groups).
# (§4) The total serum cholesterol was determined with the method of Allain, Clin. Chem., 1974, 20, 470.
# (§5) The total serum HDL cholesterol was determined according to Demacker P. N. H., Clin. Chem., 1977, 23, 1238.
# (§6) The total β-lipoprotein cholesterol was determined by difference between total serum cholesterol and HDL cholesterol. Statistical analysis in experiment 1 and 2 was performed by the Student's t test for independent samples or by the Cochran's test when the variances were not homogeneous at the F ratio test [Bliss C. I., Statistics in Biology, Vol. 1, page 213 McGraw Hill Book Company, New York 1967; Cochran W. G., Cox C. H., Experimental designs-J. Willey and Sons Inc., New York, II Ed. (1968), page 100].
# [2] = lipid-lowering activity in rats fed standard MS/K Altromin diet (Experiment 2); type: in vivo, rat (Iva-SIV (SPF) male)
# Experimental: as §1, §2, §3, §4
# The serum triglycerides were determined with the method of Mendez, J. Clin. Chem., 1975, 21, 768.
# as §5, §6
# [3] = orientative acute toxicity (LD50) in mice; settings: mouse, in vivo, single oral administration, assessed on seventh day
# Experimental: The toxicity of the compounds of the invention is negligible. Nine hours food deprived mice were treated orally with single administration of increasing doses, then housed and normally fed. The orientative acute toxicity (LD50) was assessed on the seventh day after the treatment and, for example, the following data were obtained: […]
# [4] = test system: influenza virus strain APR 8; assay: influenza virus experimental infection in mice; type: in vivo, CD-1 mice; settings: single dose one or two days after the infection
# Experimental: (§7) The antiviral activity of the compound of the invention was, for example, evaluated on influenza and herpes simplex viruses experimental infections in mice.
# (§8) Groups of CD-1 mice were infected intranasally with the strain APR 8 of influenza virus and other groups were infected intraperitoneally with the strain 1RC of herpes simplex virus. The tested compounds were administered through various routes, e.g. intraperitoneally, subcutaneously, orally.
# (§9) The effect of the tested compounds, against the influenza virus, was evaluated on the basis of the number of lung lesions and, against the herpes infection, the parameter considered was the protection from mortality since, as is known, herpes simplex infection is lethal in mice.
# [5] = test system: antibody response against sheep red blood cells (SRBC); assay: antibody response induced in mice by suboptimal dose of sheep red blood cells (immunomodulating activity); type: in vivo, mice (female CD-1); settings: i.p., 50 and 5 mg/kg two hours before antigen, vs control group, six days later
# Experimental: Their immunomodulating activity is, for example, proven by their capacity to modify the antibody response induced in mice by a suboptimal dose of sheep red blood cells (SRBC) injected by intraperitoneal route (i.p.).
# Groups of ten female CD-1 mice were injected i.p. with 2×10^6 SRBC as antigen. The tested compounds were administered i.p. at two dosage levels: 50 and 5 mg/kg body weight, two hours before the administration of the antigen. A control group of mice received SRBC and saline instead of the compounds. Six days later the mice were killed and antibody titres against SRBC determined in their sera, according to Williams C. A.: Methods in Immunology and Immunochemistry, C. A. Williams and M. W. Chase, Eds. Academic Press, New York, Vol. II, page 152, 1977.
# [6] = test system: herpes simplex virus strain 1RC; assay: herpes simplex virus experimental infection in mice; type: in vivo, CD-1 mice; settings: single dose one or two days after the infection
# Experimental: as §7, §8, §9
# [7] = test system: syndrome induced by oxotremorine; assay: antagonism against syndrome induced by oxotremorine in mice (anti-cholinergic activity); type: in vivo, mice (male); settings: Mus musculus, po, approximate ED50, read-out: Anticholinergic activity ED50 p.o.
# Experimental: Considering that many anti-ulcer agents display, as does atropine, a remarkable but undesired anti-cholinergic activity, the compounds of the invention were also assessed for their antagonism against syndrome induced by oxotremorine in mice, according to the method described by Leszkovszky G. P. and Tardos L. (Europ. J. Pharmac. 1971, 15, 310). According to this method 5 male mice, 20-25 g body weight, were used for each group.
# restraint ulcers = assay: inhibition of restraint ulcers in rats (anti-ulcerogenic activity); type: in vivo, rat (Sprague-Dawley male); settings: po, 4 h; rat, p.o., approximate ED50; read-out: Antiulcerogenic activity ED50 p.o.
# Description: The compounds of the invention are also useful for reducing the undesirable gastrointestinal side-effects resulting from systemic administration of anti-inflammatory prostaglandin synthetase inhibitors and may be, therefore, used for this purpose in association with them. The anti-ulcerogenic activity of the compounds of the invention is shown, e.g., by the fact that they are active in the test of the inhibition of restraint ulcers in rats, according to the method of Bonfils et al., (Therapie, 1960, 5, 1096; Jap. J. Pharmac. 1945, 43, 5).
# According to this method, the tested compounds were administered per os (p.o.) one hour before the immobilization. Six Sprague-Dawley male rats (100-120 g) fasted 24 hours were used for the experiment: a square flexible small-mesh wire netting was used for the immobilization and 4 hours after the immobilization the rats were sacrificed, their stomachs were removed and the lesions counted under a dissecting microscope.
# gastric secretion = assay: inhibition of gastric secretion in pylorus-ligated rats (antisecretory activity, method of Shay); type: in vivo, rat (Sprague-Dawley male); settings: 4 h; rat, intraduodenal, approximate ED50; read-out: Antisecretory activity ED50 i.d.
# Experimental: According to this method the tested compounds were injected intraduodenally (i.d.) at the time of ligature.
# Six Sprague-Dawley male rats (110-130 g) were used for each group. Twenty-four hours before the test, the rats were deprived of food but the water supply was maintained. On the day of the operation, the pylorus was ligated under light ether anaesthesia. Four hours after the ligature, the rats were sacrificed. The stomach secretion was collected and centrifugated at 3500 r.p.m. for 10 minutes and the volume, less sediment, was determined.
# The amount of free hydrochloric acid in the gastric juice was determined by titration against 0.01N sodium hydroxide, to an end point of pH 7.
# [8] = Experiment 2, 50 mg/kg/os, vs control
compound,measurement,setting,value
"O=C(O)CC1Oc2ccccc2-c2ccccc21 (centres unmarked) [FCE 20881, 6H,6-carboxymethyl-dibenzo[b,d]pyran]","Serum HDL total cholesterol, mean ± S.E.","[1]; Experiment 1, 50 mg/kg/os for 4 days, hypercholesterolaemic diet, control 13.2 ± 1.8",23.2 ± 0.5 mg/100 ml
same,"Total serum cholesterol, mean ± S.E.","[1]; Experiment 1, 50 mg/kg/os for 4 days, hypercholesterolaemic diet, control 459.6 ± 51.7",240.0 ± 20.7 mg/100 ml
same,effect on total serum cholesterol and total HDL cholesterol,"[1]; Experiment 1, in words",decrease the total serum cholesterol and to increase the total HDL cholesterol
same,"β-lipoprotein cholesterol, mean ± S.E.","[2]; Experiment 2, 50 mg/kg/os for 4 days, standard diet, control 27.1 ± 1.1",20.5 ± 0.8 mg/100 ml
same,"Total serum cholesterol, mean ± S.E.","[2]; Experiment 2, 50 mg/kg/os for 4 days, standard diet, control 66.3 ± 1.7",57.7 ± 1.5 mg/100 ml
same,"Serum triglycerides (printed ""trygylcerides""), mean ± S.E.","[2]; Experiment 2, 50 mg/kg/os for 4 days, standard diet, control 228.7 ± 18.9",168.3 ± 13.4 mg/100 ml
same,"Serum triglycerides, Student's t test result",[2]; [8],S (significant (p <0.05))
same,"Total serum cholesterol, Student's t test result",[2]; [8],HS (highly significant (p <0.01))
same,"β-lipoprotein cholesterol, Student's t test result",[2]; [8],HS (highly significant (p <0.01))
same,"effect on total serum cholesterol, β-lipoprotein cholesterol and serum triglycerides","[2]; Experiment 2, in words","decrease the total serum cholesterol, in particular β-lipoprotein cholesterol and serum triglycerides"
same,LD50 at 168 h,[3],400 to 800 mg/kg
"O=C(O)C1(CO)Oc2ccccc2-c2ccccc21 (centres unmarked) [FCE 20561, 6H,6-carboxy-6-hydroxymethyl-dibenzo[b,d]pyran]",LD50 at 168 h,[3],> 800 mg/kg
"N#CC1Oc2ccccc2-c2ccccc21 (centres unmarked) [FCE 20493, 6H,6-cyano-dibenzo[b,d]pyran]",LD50 at 168 h,[3],400 to 800 mg/kg
"CN(C)CCOC(=O)C1Oc2ccccc2-c2ccccc21 (centres unmarked) [FCE 20696, 6H,6-(2-dimethylaminoethoxycarbonyl)-dibenzo[b,d]pyran]",number of lung lesions,[4],reducing substantially the number of lung lesions
same,antibody titres against SRBC,[5],increased the antibody titers several fold as compared to control group
same,protection from mortality (animals protected from death),[6],up to 45%
same,LD50 at 168 h,[3],400 to 800 mg/kg
"N#CC1(CO)Oc2ccccc2-c2ccccc21 (centres unmarked) [FCE 20518, 6H,6-cyano-6-hydroxymethyl-dibenzo[b,d]pyran]",LD50 at 168 h,[3],> 800 mg/kg
"CC1(C#N)Oc2ccccc2-c2ccccc21 (centres unmarked) [FCE 20519, 6H,6-cyano-6-methyl-dibenzo[b,d]pyran]",LD50 at 168 h,[3],> 800 mg/kg
"CCOC(=O)C1Oc2ccccc2-c2ccccc21 (centres unmarked) [FCE 20521, 6H,6-ethoxycarbonyl-dibenzo[b,d]pyran]",LD50 at 168 h,[3],> 800 mg/kg
"NCC1Oc2ccccc2-c2ccccc21 (centres unmarked) [FCE 20524, 6H,6-aminomethyl-dibenzo[b,d]pyran]",ED50,[7],> 100 mg/kg
same,LD50 at 168 h,[3],400 to 800 mg/kg
same,ED50,restraint ulcers,4.8 mg/kg
same,ED50,gastric secretion,6 mg/kg
"CC1(C(=O)O)Oc2ccccc2-c2ccccc21 (centres unmarked) [FCE 20562, 6H,6-carboxy-6-methyl-dibenzo[b,d]pyran]",LD50 at 168 h,[3],400 to 800 mg/kg
"c1ccc2c(c1)OC(N1CCNCC1)c1ccccc1-2 (centres unmarked) [FCE 20618, 6H,6-(1-piperazinyl)-dibenzo[b,d]pyran]",ED50,[7],> 100 mg/kg
same,LD50 at 168 h,[3],400 to 800 mg/kg
same,ED50,restraint ulcers,7 mg/kg
same,ED50,gastric secretion,1.5 mg/kg
"CCN(CC)CCOC(=O)C1Oc2ccccc2-c2ccccc21 (centres unmarked) [FCE 21849, 6H,6-(2-diethylaminoethoxycarbonyl)-dibenzo[b,d]pyran]",antibody titres against SRBC,[5],increased the antibody titers several fold as compared to control group
same,LD50 at 168 h,[3],400 to 800 mg/kg
"CC1(C(=O)O)Oc2ccc(Cl)cc2-c2ccccc21 (centres unmarked) [FCE 20770, 6H,6-carboxy-6-methyl-2-chloro-dibenzo[b,d]pyran]",LD50 at 168 h,[3],400 to 800 mg/kg
